Measured values as given in ChEMBL document CHEMBL6083208, “Integrating amino acids into Bcr-Abl inhibitors: design, synthesis, biological evaluation, and in silico studies” (RSC Med Chem, 2024).
Active and inactive are the calls of the source. No cut-off for these calls is given here.

What was measured:
[1] = system: BaF3; assay: Antiproliferative activity against mouse BaF3 cells harbouring Bcr-Abl T315I assessed of cell viability at 2 uM incubated for 72 hrs by Celltiter-glo luminescent cell viability assay relative to control; format: functional
[2] = system: HEK293; assay: Antiproliferative activity against HEK293 cells after 48 hrs by MTT assay; format: toxicity, cell-based; set-up: concentration or dose not given beside the values; conditions: human, hek293, 48 h
[3] = target: Bcr/Abl fusion protein (Homo sapiens, UniProt P00519); assay: Inhibition of wild type Bcr-Abl (unknown origin) using Abltide as substrate incubated for 1 hr by luminescence based ADP-glo assay; format: protein assay
Bcr/Abl fusion protein, sequence (P00519 whole entry, the tested form may be a part): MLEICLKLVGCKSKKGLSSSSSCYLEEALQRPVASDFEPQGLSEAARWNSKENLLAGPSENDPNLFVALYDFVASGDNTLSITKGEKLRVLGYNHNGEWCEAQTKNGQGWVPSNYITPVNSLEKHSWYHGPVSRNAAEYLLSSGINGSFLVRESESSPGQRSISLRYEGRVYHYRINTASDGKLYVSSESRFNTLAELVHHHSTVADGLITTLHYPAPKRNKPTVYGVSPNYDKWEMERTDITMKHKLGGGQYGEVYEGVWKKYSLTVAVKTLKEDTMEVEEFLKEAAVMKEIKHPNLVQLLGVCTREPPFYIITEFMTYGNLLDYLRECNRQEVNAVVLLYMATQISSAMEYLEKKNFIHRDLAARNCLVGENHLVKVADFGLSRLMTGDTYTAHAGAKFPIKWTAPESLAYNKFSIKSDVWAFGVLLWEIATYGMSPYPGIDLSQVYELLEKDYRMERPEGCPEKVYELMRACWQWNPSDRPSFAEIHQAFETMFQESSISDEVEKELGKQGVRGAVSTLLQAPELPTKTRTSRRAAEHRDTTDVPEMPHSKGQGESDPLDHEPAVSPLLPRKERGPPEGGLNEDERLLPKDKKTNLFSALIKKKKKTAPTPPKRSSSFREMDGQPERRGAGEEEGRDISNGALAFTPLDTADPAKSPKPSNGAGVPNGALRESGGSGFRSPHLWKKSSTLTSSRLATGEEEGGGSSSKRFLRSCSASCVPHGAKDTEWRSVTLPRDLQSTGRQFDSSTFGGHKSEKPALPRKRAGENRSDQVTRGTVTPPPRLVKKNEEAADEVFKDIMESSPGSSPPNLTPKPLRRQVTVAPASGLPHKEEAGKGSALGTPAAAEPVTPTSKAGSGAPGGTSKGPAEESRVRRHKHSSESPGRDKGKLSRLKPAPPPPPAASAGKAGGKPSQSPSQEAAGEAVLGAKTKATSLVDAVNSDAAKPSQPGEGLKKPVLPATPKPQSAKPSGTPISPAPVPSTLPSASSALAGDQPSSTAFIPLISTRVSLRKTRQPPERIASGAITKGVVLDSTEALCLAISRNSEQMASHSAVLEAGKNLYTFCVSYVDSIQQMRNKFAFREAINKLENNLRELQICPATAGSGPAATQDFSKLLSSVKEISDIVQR
Bcr/Abl fusion protein, sequence (P11274 whole entry, further chain, the tested form may be a part): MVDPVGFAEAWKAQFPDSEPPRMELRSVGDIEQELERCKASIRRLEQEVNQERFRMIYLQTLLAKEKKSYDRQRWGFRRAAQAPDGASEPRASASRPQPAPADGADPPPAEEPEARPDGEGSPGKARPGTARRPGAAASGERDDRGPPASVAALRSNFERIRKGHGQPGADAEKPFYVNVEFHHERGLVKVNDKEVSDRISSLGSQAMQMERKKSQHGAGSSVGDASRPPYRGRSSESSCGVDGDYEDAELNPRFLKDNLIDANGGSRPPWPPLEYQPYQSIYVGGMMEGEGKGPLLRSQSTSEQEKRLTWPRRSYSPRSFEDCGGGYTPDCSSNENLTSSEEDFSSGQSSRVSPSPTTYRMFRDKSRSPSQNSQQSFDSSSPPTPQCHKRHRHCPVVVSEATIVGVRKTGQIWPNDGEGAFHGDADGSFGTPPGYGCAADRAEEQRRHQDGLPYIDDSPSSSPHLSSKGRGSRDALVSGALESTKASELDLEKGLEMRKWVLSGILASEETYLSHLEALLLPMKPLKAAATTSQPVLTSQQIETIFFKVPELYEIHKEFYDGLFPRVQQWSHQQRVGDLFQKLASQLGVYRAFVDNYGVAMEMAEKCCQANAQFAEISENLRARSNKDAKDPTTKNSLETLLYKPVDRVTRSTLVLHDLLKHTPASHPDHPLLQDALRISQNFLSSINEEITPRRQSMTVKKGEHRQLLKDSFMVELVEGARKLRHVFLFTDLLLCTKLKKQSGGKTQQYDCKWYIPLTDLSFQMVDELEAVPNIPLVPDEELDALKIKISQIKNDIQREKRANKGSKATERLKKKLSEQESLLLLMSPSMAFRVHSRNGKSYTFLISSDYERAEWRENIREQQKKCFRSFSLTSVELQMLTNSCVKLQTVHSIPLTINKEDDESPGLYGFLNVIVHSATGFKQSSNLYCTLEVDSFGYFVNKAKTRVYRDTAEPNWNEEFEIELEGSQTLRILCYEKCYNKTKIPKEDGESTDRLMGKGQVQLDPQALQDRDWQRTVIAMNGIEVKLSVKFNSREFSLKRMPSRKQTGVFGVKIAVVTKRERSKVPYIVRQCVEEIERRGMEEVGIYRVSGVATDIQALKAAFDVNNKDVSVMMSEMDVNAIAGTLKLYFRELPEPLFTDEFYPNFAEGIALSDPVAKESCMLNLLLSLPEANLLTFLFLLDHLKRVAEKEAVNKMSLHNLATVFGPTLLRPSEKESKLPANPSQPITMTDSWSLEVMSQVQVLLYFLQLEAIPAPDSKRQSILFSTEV

[4] = system: BaF3; assay: Antiproliferative activity against mouse BaF3 cells harbouring Bcr-Abl T315I assessed of cell viability at 30 uM incubated for 72 hrs by Celltiter-glo luminescent cell viability assay relative to control; format: functional
[5] = system: K562; assay: cells; conditions: Homo sapiens, K562, 48 h
[6] = system: THP-1; assay: Antiproliferative activity against human THP-1 cells after 48 hrs by MTT assay; format: functional; set-up: concentration or dose not given beside the values
[7] = system: BaF3; assay: Antiproliferative activity against mouse BaF3 cells harbouring Bcr-Abl T315I assessed of cell viability at 10 uM incubated for 72 hrs by Celltiter-glo luminescent cell viability assay relative to control; format: functional
[8] = Inhibition of Bcr-Abl T315Ialpha mutant (unknown origin) using Abltide as substrate incubated for 1 hr by luminescence based ADP-glo assay; set-up: species or system Homo sapiens
[9] = system: K562; assay: Induction of apoptosis in human K562 cells assessed as necrotic cells at 10 uM measured after 48 hrs by annexin-V/FITC and propidium iodide double staining based flow cytometry analysis (reference value: 1.05%); format: functional
[10] = system: K562; assay: Induction of apoptosis in human K562 cells assessed as late apoptotic cells at 15 uM measured after 48 hrs by annexin-V/FITC and propidium iodide double staining based flow cytometry analysis (reference value: 2.72%); format: functional
[11] = system: K562; assay: Induction of apoptosis in human K562 cells assessed as late apoptotic cells at 10 uM measured after 48 hrs by annexin-V/FITC and propidium iodide double staining based flow cytometry analysis (reference value: 2.72%); format: functional
[12] = system: K562; assay: Induction of apoptosis in human K562 cells assessed as viable cells at 1 uM measured after 48 hrs by annexin-V/FITC and propidium iodide double staining based flow cytometry analysis (reference value: 92.67%); format: functional; conditions: read-out: Activity
[13] = system: K562; assay: Induction of apoptosis in human K562 cells assessed as viable cells at 10 uM measured after 48 hrs by annexin-V/FITC and propidium iodide double staining based flow cytometry analysis (reference value: 92.67%); format: functional; conditions: read-out: Activity
[14] = target: T1, Bcr/Abl fusion protein (Homo sapiens) (UniProt P00519+P11274); assay: Inhibition of wild type BCR-ABL in human K562 cells assessed as inhibition of STAT5 phosphorylation level measured after 48 hrs by Western blot analysis; format: cell-based; conditions: dose 0.1-15 µM
T1 sequence (P00519 whole entry, looked up, the tested form may be a part): as the sequence (P00519 whole entry, the tested form may be a part) above
T1 sequence (P11274 whole entry, looked up, the tested form may be a part): as the sequence (P11274 whole entry, further chain, the tested form may be a part) above

[15] = target: T1, Bcr/Abl fusion protein (Homo sapiens); assay: Inhibition of wild type BCR-ABL in human K562 cells assessed as inhibition of Bcr-Abl phosphorylation level at 1 uM measured after 48 hrs by Western blot analysis; format: cell-based
[16] = system: K562; assay: Induction of apoptosis in human K562 cells assessed as necrotic cells at 15 uM measured after 48 hrs by annexin-V/FITC and propidium iodide double staining based flow cytometry analysis (reference value: 1.05%); format: functional
[17] = system: K562; assay: Induction of apoptosis in human K562 cells assessed as necrotic cells at 1 uM measured after 48 hrs by annexin-V/FITC and propidium iodide double staining based flow cytometry analysis (reference value: 1.05%); format: functional
[18] = system: K562; assay: Induction of apoptosis in human K562 cells assessed as early apoptotic cells at 10 uM measured after 48 hrs by annexin-V/FITC and propidium iodide double staining based flow cytometry analysis (reference value: 3.57%); format: functional
[19] = system: K562; assay: Induction of apoptosis in human K562 cells assessed as early apoptotic cells at 1 uM measured after 48 hrs by annexin-V/FITC and propidium iodide double staining based flow cytometry analysis (reference value: 3.57%); format: functional
[20] = system: K562; assay: Induction of apoptosis in human K562 cells assessed as late apoptotic cells at 1 uM measured after 48 hrs by annexin-V/FITC and propidium iodide double staining based flow cytometry analysis (reference value: 2.72%); format: functional
[21] = target: T1, Bcr/Abl fusion protein (Homo sapiens); assay: Inhibition of wild type BCR-ABL in human K562 cells assessed as inhibition of STAT5 phosphorylation level at 20 uM measured after 48 hrs by Western blot analysis; format: cell-based
[22] = system: K562; assay: Induction of cell cycle arrest in human K562 cells assessed as increase in accumulation of cells at G0/G1 phase at 1 to 20 uM measured after 48 hrs by PI staining based flow cytometry analysis; format: functional; conditions: dose 1-20 µM
[23] = target: T1, Bcr/Abl fusion protein (Homo sapiens); assay: Inhibition of wild type BCR-ABL in human K562 cells assessed as inhibition of Bcr-Abl phosphorylation level at 20 uM measured after 48 hrs by Western blot analysis; format: cell-based
[24] = system: K562; assay: Induction of apoptosis in human K562 cells assessed as viable cells at 15 uM measured after 48 hrs by annexin-V/FITC and propidium iodide double staining based flow cytometry analysis (reference value: 92.67%); format: functional; conditions: read-out: Activity
[25] = system: K562; assay: Induction of apoptosis in human K562 cells assessed as early apoptotic cells at 15 uM measured after 48 hrs by annexin-V/FITC and propidium iodide double staining based flow cytometry analysis (reference value: 3.57%); format: functional
[26] = system: K562; assay: Induction of cell cycle arrest in human K562 cells assessed as increase in accumulation of cells at G2/M phase at 1 to 20 uM measured after 48 hrs by PI staining based flow cytometry analysis; format: functional; conditions: dose 1-20 µM
[27] = system: K562; assay: Induction of cell cycle arrest in human K562 cells assessed as reduction in accumulation of cells at S phase at 1 to 20 uM measured after 48 hrs by PI staining based flow cytometry analysis; format: functional; conditions: dose 1-20 µM
[28] = system: K562; assay: Induction of apoptosis in human K562 cells assessed as early apoptotic cells at 1 uM measured after 48 hrs by annexin-V/FITC and propidium iodide double staining based flow cytometry analysis (reference value: 2.16%); format: functional
[29] = system: K562; assay: Induction of apoptosis in human K562 cells assessed as early apoptotic cells at 20 uM measured after 48 hrs by annexin-V/FITC and propidium iodide double staining based flow cytometry analysis (reference value: 2.16%); format: functional
[30] = system: K562; assay: Induction of apoptosis in human K562 cells assessed as late apoptotic cells at 10 uM measured after 48 hrs by annexin-V/FITC and propidium iodide double staining based flow cytometry analysis (reference value: 10.34%); format: functional
[31] = target: T1, Bcr/Abl fusion protein (Homo sapiens); assay: Inhibition of wild type BCR-ABL in human K562 cells assessed as inhibition of Bcr-Abl phosphorylation level at high concentration measured after 48 hrs by Western blot analysis; format: cell-based
[32] = system: K562; assay: Induction of apoptosis in human K562 cells assessed as viable cells at 20 uM measured after 48 hrs by annexin-V/FITC and propidium iodide double staining based flow cytometry analysis (reference value: 87.47%); format: functional; conditions: read-out: Activity
[33] = system: K562; assay: Induction of apoptosis in human K562 cells assessed as late apoptotic cells at 20 uM measured after 48 hrs by annexin-V/FITC and propidium iodide double staining based flow cytometry analysis (reference value: 10.34%); format: functional
[34] = system: K562; assay: Induction of apoptosis in human K562 cells assessed as necrotic cells at 10 uM measured after 48 hrs by annexin-V/FITC and propidium iodide double staining based flow cytometry analysis (reference value: 0.03%); format: functional
[35] = target: T1, Bcr/Abl fusion protein (Homo sapiens); assay: Inhibition of wild type BCR-ABL in human K562 cells assessed as inhibition of STAT5 phosphorylation level at high concentration measured after 48 hrs by Western blot analysis; format: cell-based
[36] = system: K562; assay: Induction of apoptosis in human K562 cells assessed as necrotic cells at 1 uM measured after 48 hrs by annexin-V/FITC and propidium iodide double staining based flow cytometry analysis (reference value: 0.03%); format: functional
[37] = system: K562; assay: Induction of apoptosis in human K562 cells assessed as viable cells at 10 uM measured after 48 hrs by annexin-V/FITC and propidium iodide double staining based flow cytometry analysis (reference value: 87.47%); format: functional; conditions: read-out: Activity
[38] = system: K562; assay: Induction of apoptosis in human K562 cells assessed as late apoptotic cells at 1 uM measured after 48 hrs by annexin-V/FITC and propidium iodide double staining based flow cytometry analysis (reference value: 10.34%); format: functional
[39] = system: K562; assay: Induction of cell cycle arrest in human K562 cells assessed as increase in accumulation of cells at G0/G1 phase measured after 48 hrs by PI staining based flow cytometry analysis; format: functional; conditions: dose 1-20 µM
[40] = system: K562; assay: Induction of apoptosis in human K562 cells assessed as necrotic cells at 20 uM measured after 48 hrs by annexin-V/FITC and propidium iodide double staining based flow cytometry analysis (reference value: 0.03%); format: functional
[41] = system: K562; assay: Induction of apoptosis in human K562 cells assessed as early apoptotic cells at 10 uM measured after 48 hrs by annexin-V/FITC and propidium iodide double staining based flow cytometry analysis (reference value: 2.16%); format: functional
[42] = system: K562; assay: Induction of apoptosis in human K562 cells assessed as viable cells at 1 uM measured after 48 hrs by annexin-V/FITC and propidium iodide staining double based flow cytometry analysis (reference value: 87.47%); format: functional; conditions: read-out: Activity

Structure (SMILES)	inhibition at 2 µM [1] [%]	Activity [2] [%]	IC50 [3] [nM]	inhibition at 30 µM [4] [%]	IC50 [5] [nM]	Activity [6] [%]	inhibition at 10 µM [7] [%]	IC50 [8] [nM]	also measured
CC(C)(C)[C@H](NC(=O)c1ccc(-c2ccnc(NS(C)(=O)=O)c2)cc1)C(=O)Nc1ccc(Cl)c(C(F)(F)F)c1	8.95	81	3.93	100	0.93	100	36.1	66.9	–
CC(=O)Nc1cc(-c2ccc(C(=O)N[C@H](C(=O)Nc3ccc(Cl)c(C(F)(F)F)c3)C(C)(C)C)cc2)ccn1	4.64	88	9.9	99.8	3.31	68	31.8	180	–
CC(C)(C)OC[C@H](NC(=O)c1ccc(-c2ccnc(N)c2)cc1)C(=O)Nc1ccc(Cl)c(C(F)(F)F)c1	0.7	94	0.87	99.8	3.02	56	25.5	144	–
CC(C)(C)OC[C@H](NC(=O)c1cccc(-c2ccc(NS(C)(=O)=O)nc2)c1)C(=O)Nc1ccc(Cl)c(C(F)(F)F)c1	0.62	88	10.6	96.7	2.59	77	99.9	138	–
CC(C)(C)C(=O)Nc1ccc(-c2cccc(C(=O)N[C@H](C(=O)Nc3ccc(Cl)c(C(F)(F)F)c3)C(C)(C)C)c2)cn1	99.9	81	26.5	98.1	0.97	73	100	351	–
CC(=O)Nc1ccc(-c2cccc(C(=O)N[C@@H](CO)C(=O)Nc3ccc(Cl)c(C(F)(F)F)c3)c2)cn1	-1.17	85	0.33	90	0.85	100	24.5	66	–
CC(C)(C)[C@H](NC(=O)c1ccc(-c2cncc(C(=O)NC3CC3)c2)cc1)C(=O)Nc1ccc(Cl)c(C(F)(F)F)c1	5.84	91	8.02	100	3.34	100	42.6	140	–
Nc1ccc(-c2cccc(C(=O)N[C@@H](CO)C(=O)Nc3ccc(Cl)c(C(F)(F)F)c3)c2)cn1	-0.03	93	1.6	88.3	2.13	84	15.2	148	–
CC(C)(C)[C@H](NC(=O)c1cccc(-c2ccc(NS(C)(=O)=O)nc2)c1)C(=O)Nc1ccc(Cl)c(C(F)(F)F)c1	10	100	1.44	99.6	0.61	65	100	48	Activity [9]: 0.4%; Activity [10]: 8.48%; Activity [11]: 8.64%; viability at 1 µM [12]: 88.2%; viability at 10 µM [13]: 82.8%; inhibition [14]: Dose-dependent-effect; inhibition [15]: Active; Activity [16]: 0.28%; Activity [17]: 0.17%; Activity [18]: 8.2%; Activity [19]: 7.15%; Activity [20]: 4.45%; inhibition [21]: Active; Activity [22]: Active; inhibition [23]: Active; viability at 15 µM [24]: 82.5%; Activity [25]: 8.69%; Activity [26]: Active; Activity [27]: Active
CC(C)(C)OC[C@H](NC(=O)c1ccc(-c2ccnc(NS(C)(=O)=O)c2)cc1)C(=O)Nc1ccc(Cl)c(C(F)(F)F)c1	7.49	93	0.33	96.7	0.19	94	27.6	51	–
CC(=O)Nc1cc(-c2ccc(C(=O)N[C@@H](COC(C)(C)C)C(=O)Nc3ccc(Cl)c(C(F)(F)F)c3)cc2)ccn1	7.66	95	0.231	98.1	0.06	66	64.1	37.5	Activity [28]: 1.37%; Activity [29]: 1.52%; Activity [30]: 38.85%; inhibition [31]: Active; viability at 20 µM [32]: 31.8%; inhibition [21]: Active; Activity [33]: 66.61%; Activity [34]: 0.07%; inhibition [23]: Active; inhibition [35]: Active; Activity [36]: 0.07%; viability at 10 µM [37]: 59.4%; Activity [38]: 24.67%; Activity [39]: Dose-dependent-effect; Activity [40]: 0.07%; Activity [41]: 1.64%; viability at 1 µM [42]: 73.9%
